For 85 compounds, Papp results are on record in PubChem BioAssay AID1845228.

For this series the following is noted: pampa; 60.0 min; 50.0 µM.
What is called Papp is a coefficient for how fast a substance crosses the barrier. A lower Papp goes with slow passage. `N=c1c2c(-c3ccccc3)cn(Cc3ccccc3)c2ncn1CCCCCO` gave an apparent permeability coefficient (Papp) of 89 ×10⁻⁶ cm/s. As for `CCN(CC)CCNC(=O)c1c(C)[nH]c(/C=C2\C(=O)Nc3ccc(F)cc32)c1C`, the figure is 56 ×10⁻⁶ cm/s; as for `OC[C@H]1O[C@@H](n2cnc3c(NCc4ccc(O)cc4)ncnc32)[C@H](O)[C@@H]1O`, less than 1 ×10⁻⁶ cm/s; as for `O=C(NCc1ccc(OC(F)(F)F)cc1)C1c2ccccc2C(=O)N1C1CCOCC1` (stereo not given), 42 ×10⁻⁶ cm/s. In the case of `Cn1nnnc1Sc1ncnc2scc(-c3cccc4c3sc3ccccc34)c12` it was 12 ×10⁻⁶ cm/s. The compound `O=C1Nc2ccc(C(=O)c3ccco3)cc2/C1=C/c1cc(Cl)c(O)c(Cl)c1` returned a Papp of 38 ×10⁻⁶ cm/s. As for `CNc1oc(-c2cccc(Cl)c2Cl)nc1C#N`, the figure is 124 ×10⁻⁶ cm/s; as for `COC(Cn1cnc2c(c(-c3ccccc3)c(-c3ccccc3)n2CCc2ccccc2)c1=N)OC`, 236 ×10⁻⁶ cm/s. In the case of `Cc1ccc(-c2c(C(=O)CCl)n(CCCO)c3ncnc(N)c23)cc1` it was 76 ×10⁻⁶ cm/s; in that of `C[n+]1c2cc(N)ccc2cc2ccc(N)cc21`, less than 1 ×10⁻⁶ cm/s. In the case of `N=c1c2c(-c3ccccc3)cn(Cc3ccccc3)c2ncn1CCNCCO` it was 3 ×10⁻⁶ cm/s. `O=C(CCl)Nc1cccc(NC2=NS(=O)(=O)c3ccccc32)c1` showed a Papp of 5.9 ×10⁻⁶ cm/s.

Regarding `CC[C@@]1(O)C(=O)OCc2c1cc1n(c2=O)Cc2c-1nc1ccccc1c2/C=N/OC(C)(C)C`, the Papp came out at 81 ×10⁻⁶ cm/s. Compound `N=c1c2c(-c3ccccc3)cn(Cc3ccccc3)c2ncn1CCO` had a Papp of 113 ×10⁻⁶ cm/s. As to `COc1ccc(N(C)c2nc(C)nc3ccccc23)cc1`, the Papp amounted to 220 ×10⁻⁶ cm/s. In the case of `Cc1ccc(NC(=O)c2ccc(CN3CCN(C)CC3)cc2)cc1Nc1nc(-c2cccnc2)cs1` it was 100 ×10⁻⁶ cm/s. As for `COc1ccc(CCn2cnc3c(c(-c4ccccc4)c(-c4ccccc4)n3Cc3ccccc3)c2=N)cc1OC`, the figure is 287 ×10⁻⁶ cm/s; as for `Cn1nnnc1Sc1ncnc2scc(-c3cccc(C(F)(F)F)c3)c12`, 296 ×10⁻⁶ cm/s. In the case of `Cc1cccc(NC(=O)c2ccc(C(F)(F)F)cc2C(=O)O)n1` it was less than 1 ×10⁻⁶ cm/s; in that of `C1CCC(COCCc2noc(C3CNC3)n2)C1`, less than 1 ×10⁻⁶ cm/s. Turning to `O=C1c2c(O)ccc(O)c2C(=O)c2c(NCCNCCO)ccc(NCCNCCO)c21`, the apparent permeability coefficient (Papp) came to 19 ×10⁻⁶ cm/s.

In turn, `NCCc1ccc(O)c(O)c1` gave a Papp of less than 1 ×10⁻⁶ cm/s. In the case of `O=C(O)Cc1ccc2c(c1)C(=O)c1ccccc1CO2` it was less than 1 ×10⁻⁶ cm/s; in that of `CCOc1ccc(-c2nn3ncccc3c2-c2ccc(S(C)(=O)=O)cc2)cc1`, 111 ×10⁻⁶ cm/s.

Turning to `Cn1nnnc1Sc1ncnc2scc(-c3ccsc3)c12`, the apparent permeability (Papp) was 173 ×10⁻⁶ cm/s. For the compound `N=c1c2c(-c3ccccc3)c(-c3ccccc3)n(Cc3ccccc3)c2ncn1CCN`, the apparent permeability coefficient (Papp) was 78 ×10⁻⁶ cm/s. With `N=c1c2c(-c3ccccc3)c(-c3ccccc3)n(Cc3ccccc3)c2ncn1C1CCN(Cc2ccccc2)CC1`, the Papp stood at 233 ×10⁻⁶ cm/s. As for `CC1=C(/C=C/C(C)=C/C=C/C(C)=C/C(=O)O)C(C)(C)CCC1`, the figure is less than 1 ×10⁻⁶ cm/s; as for `CO/N=C(/C(=O)N[C@@H]1C(=O)N2C(C(=O)O)=C(COC(N)=O)CS[C@H]12)c1ccco1`, 2 ×10⁻⁶ cm/s. As for `Cn1nnnc1SCC1=C(C(=O)O)N2C(=O)[C@H](NC(=O)C(O)c3ccccc3)C2SC1` (stereo not given in full), the figure is less than 1 ×10⁻⁶ cm/s.

`O=C(/C=C\n1cnc(-c2cc(C(F)(F)F)cc(C(F)(F)F)c2)n1)N1CC(F)(F)C1` showed a Papp of 121 ×10⁻⁶ cm/s. In the case of `Cn1nnnc1Sc1ncnc2scc(-c3ccc(C#N)cc3)c12` it was 63 ×10⁻⁶ cm/s; in that of `CC(=O)OCC1=C(C(=O)O)N2C(=O)C(NC(=O)Cc3cccs3)C2SC1` (stereo not given), 2 ×10⁻⁶ cm/s. Turning to `N#Cc1ccc(C(=O)N2CCC3(CC2)N=C(N)c2c(F)ccc(F)c2N3)cn1`, the Papp came to 4 ×10⁻⁶ cm/s. As for `O=[N+]([O-])c1nccn1CO[C@@H](CO)[C@H](O)CO`, the figure is less than 1 ×10⁻⁶ cm/s; as for `COc1ccccc1NC(=O)C1=C(C)Nc2c(C(=O)Nc3cccc(C)c3)cnn2C1c1ccccc1Cl` (stereo not given), 160 ×10⁻⁶ cm/s.

In turn, `Cc1cc2c(C(N)=O)cccc2n1-c1nc2c(c(NCc3ccccc3)n1)COCC2` gave a Papp of 90 ×10⁻⁶ cm/s.

For the compound `CC(=O)Nc1c(I)c(C(=O)N[C@H]2C(O)O[C@H](CO)[C@@H](O)[C@@H]2O)c(I)c(N(C)C(C)=O)c1I` (stereo not given in full), the apparent permeability (Papp) was 2 ×10⁻⁶ cm/s. As to `Cn1cc(C2=C(c3coc4ccccc34)C(=O)NC2=O)c2cc(Br)ccc21`, the apparent permeability (Papp) stood at 3 ×10⁻⁶ cm/s.

`Cc1c2ccncc2c(C)c2c1[nH]c1ccccc12` registered a Papp of more than 300 ×10⁻⁶ cm/s.

In the case of `CC(=O)c1cc(C(=O)N[C@@H](C)Cn2ccc(-c3ccc(C#N)c(Cl)c3)n2)[nH]n1`, the Papp turned out to be 164 ×10⁻⁶ cm/s. `Cc1cc(C)nc(NC(=S)N2CCN(c3ccc(C(F)(F)F)cn3)CC2)c1` came in with a Papp of 137 ×10⁻⁶ cm/s. In the case of `CCC(=O)C1=C(c2ccc(F)cc2)N(C(=O)CC)n2cnnc2S1` it was 189 ×10⁻⁶ cm/s. `NCC1(CC(=O)O)CCCCC1` returned an apparent permeability coefficient (Papp) of less than 1 ×10⁻⁶ cm/s. As for `CC1(C)CC(=O)c2c(C(F)(F)F)nn(-c3ccc(C(N)=O)c(NC4CCC(O)CC4)c3)c2C1` (stereo not given), the figure is 21.5 ×10⁻⁶ cm/s; as for `C/C1=C\CC[C@]2(C)O[C@H]2C(=O)c2c(C)coc2C1`, 122 ×10⁻⁶ cm/s; as for `COc1cc(C(C)C)c(Oc2cnc(NC(CO)CO)nc2N)cc1I`, 103 ×10⁻⁶ cm/s.

With `COc1ccc(CCn2cnc3c(c(-c4ccccc4)cn3Cc3ccccc3)c2=N)cc1OC`, the Papp is 284 ×10⁻⁶ cm/s.

`CC/C=C(\C(=O)N[C@@H]1C(=O)N2C(C(=O)OCOC(=O)C(C)(C)C)=C(COC(N)=O)CS[C@H]12)c1csc(N)n1` yielded an apparent permeability coefficient (Papp) of less than 1 ×10⁻⁶ cm/s.

The compound `CCS(=O)(=O)N1CC(CC#N)(n2cc(-c3ncnc4[nH]ccc34)cn2)C1` gave a Papp of less than 1 ×10⁻⁶ cm/s. For `Clc1ccc(CN[C@H]2CCN(c3ncc(Br)cn3)C2)c(Cl)c1`, the apparent permeability coefficient (Papp) was more than 300 ×10⁻⁶ cm/s. Compound `Nc1nc(N)c2c(OCC3CCN(Cc4ccccc4F)CC3)cccc2n1` yielded an apparent permeability (Papp) of 12 ×10⁻⁶ cm/s. As for `CCCCCCCCCC(=O)O[C@H]1CC[C@H]2[C@@H]3CCC4=CC(=O)CC[C@@H]4[C@H]3CC[C@]12C`, the figure is less than 1 ×10⁻⁶ cm/s. The compound `COc1cc(Cc2cnc(N)nc2N)cc(OC)c1OC` gave an apparent permeability coefficient (Papp) of 14 ×10⁻⁶ cm/s.

Consider `Cc1ccc(-c2csc3ncnc(Sc4nnnn4C)c23)cc1`, for which the Papp was more than 300 ×10⁻⁶ cm/s. In the case of `CC(C)N(C[C@H]1O[C@@H](n2cnc3c(N)ncnc32)[C@H](O)[C@@H]1O)C1CC(CCc2nc3ccc(C(C)(C)C)cc3[nH]2)C1` (stereo not given in full) it was less than 1 ×10⁻⁶ cm/s.

Turning to `CC(C)N(CCCNC(=O)Nc1ccc(C(C)(C)C)cc1)C[C@H]1O[C@@H](n2ccc3c(N)ncnc32)[C@H](O)[C@@H]1O`, the Papp was less than 1 ×10⁻⁶ cm/s.

`CNC(=O)C1CCN(C(=O)c2ccc(-c3ncc4cnc(-c5ccccc5)cn34)cc2)CC1` had an apparent permeability coefficient (Papp) of 12 ×10⁻⁶ cm/s. As for `CO[C@@]1(NC(=O)C2SC(=C(C(N)=O)C(=O)O)S2)C(=O)N2C(C(=O)O)=C(CSc3nnnn3C)CS[C@@H]21` (stereo not given in full), the figure is less than 1 ×10⁻⁶ cm/s; as for `Cn1nnnc1Sc1ncnc2scc(-c3ccc(C(=O)OC(C)(C)C)cc3)c12`, 72 ×10⁻⁶ cm/s; as for `CN[C@H](CC(C)C)C(=O)N[C@H]1C(=O)N[C@@H](CC(N)=O)C(=O)N[C@H]2C(=O)N[C@H]3C(=O)N[C@H](C(=O)N[C@H](C(=O)O)c4cc(O)cc(O)c4-c4cc3ccc4O)[C@H](O[C@H]3C[C@](C)(N)[C@@H](O)[C@H](C)O3)c3ccc(c(Cl)c3)Oc3cc2cc(c3O[C@@H]2O[C@H](CO)[C@@H](O)[C@H](O)[C@H]2O[C@H]2C[C@](C)(NCc3ccc(-c4ccc(Cl)cc4)cc3)[C@@H](O)[C@H](C)O2)Oc2ccc(cc2Cl)[C@H]1O`, 12 ×10⁻⁶ cm/s. As for `CN(C)C(=O)NC1CCC(CCN2CCN(c3cccc(Cl)c3Cl)CC2)CC1` (stereo not given), the figure is 100 ×10⁻⁶ cm/s; as for `N=c1c2c(-c3ccccc3)cn(Cc3ccc(Br)cc3)c2ncn1CCCN1CCN(c2ccccc2)CC1`, 151 ×10⁻⁶ cm/s. `O=C(O)[C@@H]1C[C@H]2C[C@@H](CCc3nn[nH]n3)CC[C@H]2CN1` yielded an apparent permeability coefficient (Papp) of 3 ×10⁻⁶ cm/s. As for `OCCCCC#Cc1cncc(OC[C@@H]2CCN2)c1`, the figure is less than 1 ×10⁻⁶ cm/s. Compound `C/C(=C\c1csc(C)n1)[C@@H]1C[C@@H]2O[C@]2(C)CCC[C@H](C)[C@H](O)[C@@H](C)C(=O)C(C)(C)[C@@H](O)CC(=O)N1` registered a Papp of 1.7 ×10⁻⁶ cm/s. `NC(=O)[C@@H]1C[C@]2(NC(=O)NC2=O)c2cc(F)ccc2O1` had an apparent permeability (Papp) of less than 1 ×10⁻⁶ cm/s. In the case of `Cc1ccc(-c2c(C(=O)CF)n(CCCO)c3ncnc(N)c23)cc1` it was 18 ×10⁻⁶ cm/s; in that of `Cn1cnc2c(F)c(Nc3ccc(Br)cc3F)c(C(=O)NOCCO)cc21`, 19.3 ×10⁻⁶ cm/s. As for `CC1=C2C[C@H]3[C@@H](CC[C@@H]4C[C@H](NS(C)(=O)=O)CC[C@@]43C)[C@@H]2CC[C@@]2(C1)O[C@@H]1C[C@H](C)CN[C@H]1[C@H]2C`, the figure is 132 ×10⁻⁶ cm/s; as for `CC(C)NC(=O)COc1cccc(-c2nc(Nc3ccc4[nH]ncc4c3)c3ccccc3n2)c1`, 226 ×10⁻⁶ cm/s. As for `CC1(C)S[C@@H]2[C@H](NC(=O)C(C(=O)Oc3ccc4c(c3)CCC4)c3ccccc3)C(=O)N2[C@H]1C(=O)O` (stereo not given in full), the figure is less than 1 ×10⁻⁶ cm/s; as for `C=CC1=C(C(=O)O)N2C(=O)[C@@H](NC(=O)/C(=N\OCC(=O)O)c3csc(N)n3)[C@H]2SC1`, 2 ×10⁻⁶ cm/s; as for `CC(=O)Nc1c2sscc-2n(C)c1=O`, 16 ×10⁻⁶ cm/s.

As to `N[C@@H](C(=O)N[C@@H]1C(=O)N2C(C(=O)O)=C(Cl)CC[C@H]12)c1ccccc1`, the Papp was less than 1 ×10⁻⁶ cm/s. With `O=c1c2c(c1=O)N(CCP(=O)(O)O)CCCN2`, the Papp was less than 1 ×10⁻⁶ cm/s. Regarding `CCOc1cc2ncc(C#N)c(Nc3ccc(F)c(Cl)c3)c2cc1NC(=O)C=CCN(C)C`, the apparent permeability coefficient (Papp) was determined as 256 ×10⁻⁶ cm/s. On to `COc1cc2c(cc1OC)[C@@H](Cc1cc(OC)c(OC)c(OC)c1)[N+](C)(CCCOC(=O)CC/C=C/CCC(=O)OCCC[N+]1(C)CCc3cc(OC)c(OC)cc3[C@H]1Cc1cc(OC)c(OC)c(OC)c1)CC2` (stereo not given in full), for which the Papp is less than 1 ×10⁻⁶ cm/s. In the case of `C1=C(c2cnc[nH]2)c2ccsc2CC1` it was 5 ×10⁻⁶ cm/s. Take `CN(CCCCCCN(C)C(=O)Oc1ccc[n+](C)c1)C(=O)Oc1ccc[n+](C)c1`: the apparent permeability coefficient (Papp) is less than 1 ×10⁻⁶ cm/s. In the case of `N=c1c2c(-c3ccccc3)c(-c3ccccc3)n(Cc3ccccc3)c2ncn1Cc1ccc2c(c1)OCO2` it was 3 ×10⁻⁶ cm/s; in that of `CC(=O)OCC1=C(C(=O)O)N2C(=O)[C@@H](N)[C@H]2SC1`, less than 1 ×10⁻⁶ cm/s.

Turning to `Cn1cc(C2=C(c3cn(CCCSC(=N)N)c4ccccc34)C(=O)NC2=O)c2ccccc21`, the Papp was less than 1 ×10⁻⁶ cm/s. On to `Cc1ncc(COP(=O)(O)O)c(C=O)c1O`, for which the Papp is less than 1 ×10⁻⁶ cm/s.

Turning to `CCN1CCN(C(=O)c2ccc3c(c2)N(Cc2cc(C)ccc2C)C(=O)c2ccccc2S3(=O)=O)CC1`, the Papp came out at 63 ×10⁻⁶ cm/s.
